Here are results for 28 compounds from US9199946B2, “Pyrimidinone carboxamide inhibitors of endothelial lipase” (BRISTOL-MYERS SQUIBB COMPANY, priority 2012, dated 2015).

Bounds are passed on as bounds.

The first test concerns the target T1, Endothelial lipase (EL) (Homo sapiens, UniProt Q9Y5X9).
T1 construct: HT-1080 cells, which were transformed by RAGE technology (Athersys) to overexpress endogenous EL; endogenous in cells; conditioned medium used as the enzyme source
T1 sequence (Q9Y5X9 21-500): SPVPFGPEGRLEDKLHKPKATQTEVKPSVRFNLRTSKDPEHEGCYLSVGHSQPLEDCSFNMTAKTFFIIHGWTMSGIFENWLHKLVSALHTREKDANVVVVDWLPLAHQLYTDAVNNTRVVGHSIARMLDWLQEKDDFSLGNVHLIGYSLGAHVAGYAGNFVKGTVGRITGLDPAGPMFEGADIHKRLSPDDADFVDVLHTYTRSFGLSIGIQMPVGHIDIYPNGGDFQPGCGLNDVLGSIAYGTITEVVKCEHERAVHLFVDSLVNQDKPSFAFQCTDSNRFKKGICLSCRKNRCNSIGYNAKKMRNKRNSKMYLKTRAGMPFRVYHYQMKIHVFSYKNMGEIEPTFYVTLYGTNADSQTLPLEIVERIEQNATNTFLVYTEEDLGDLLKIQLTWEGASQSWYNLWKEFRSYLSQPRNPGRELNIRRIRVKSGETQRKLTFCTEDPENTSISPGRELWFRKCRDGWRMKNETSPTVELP
The test is described as follows: Endothelial lipase (EL) enzymatic assay with fluorescent substrate A10070 in DMPG vesicles. Format: biochemical. Conditions: conditioned media from HT-1080 cells overexpressing endogenous EL; 20 min preincubation at 37° C.; read-out: EL IC50. The method, boiled down: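 EL activity was followed as a fluorescence rate (488/530 nm, reads every 20 s for 10 min, linear slope) on A10070 doped at 0.05 mole fraction into sonicated DMPG vesicles. Compound was first incubated 20 min at 37 °C, pH 8.0 HEPES/CaCl2 buffer, with conditioned media from EL-overexpressing HT-1080 cells.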
Turning to `Nc1c(C(=O)N[C@H]2CC[C@@H](NC(=O)c3nc4ccccc4s3)CC2)[nH]c(=O)[nH]c1=O` [Example 117, N-(cis-4-(5-amino-2,6-dioxo-1,2,3,6-tetrahydropyrimidine-4-carboxamido)cyclohexyl)benzo[d] thiazole-2-carboxamide], the IC50 is 1.19 µM.

Staying with this test, now noted: range observed in the EL assay; read-out: EL IC50 values.
Take `Nc1c(C(=O)N[C@H]2CCc3ccc(OCc4ccccc4)cc32)[nH]c(=O)[nH]c1=O` [Example 90, (S)-5-amino-N-(6-(benzyloxy)-2,3-dihydro-1H-inden-1-yl)-2,6-dioxo-1,2,3,6-tetrahydropyrimidine-4-carboxamide]: the concentration for half-maximal inhibition (IC50) was at most 10 µM.
Still for that read-out and setting: with `Nc1c(C(=O)N[C@@H]2CCc3ccc(OCc4ccccc4)cc32)[nH]c(=O)[nH]c1=O` [Example 91, (R)-5-amino-N-(6-(benzyloxy)-2,3-dihydro-1H-inden-1-yl)-2,6-dioxo-1,2,3,6-tetrahydropyrimidine-4-carboxamide] the figure was at most 10 µM.
The same measure, in the same setting: with `Nc1c(C(=O)N[C@H]2CCCc3c(OCc4ccccc4)cccc32)[nH]c(=O)[nH]c1=O` [Example 92, (S)-5-amino-N-(5-(benzyloxy)-1,2,3,4-tetrahydronaphthalen-1-yl)-2,6-dioxo-1,2,3,6-tetrahydropyrimidine-4-carboxamide] the figure was at most 10 µM; with `Nc1c(C(=O)N[C@H]2CCCc3cc(OCc4ccccc4)ccc32)[nH]c(=O)[nH]c1=O` [Example 93, (S)-5-amino-N-(6-(benzyloxy)-1,2,3,4-tetrahydronaphthalen-1-yl)-2,6-dioxo-1,2,3,6-tetrahydropyrimidine-4-carboxamide], at most 10 µM; with `Nc1c(C(=O)N[C@H]2CC[C@@H](OCc3ccccc3)CC2)[nH]c(=O)[nH]c1=O` [Example 95, 5-amino-N-(cis-4-(benzyloxy)cyclohexyl)-2,6-dioxo-1,2,3,6-tetrahydropyrimidine-4-carboxamide], at most 10 µM.
Same read-out and setting: with `Nc1c(C(=O)N[C@@H]2CCCc3c(OCc4ccccc4F)cccc32)[nH]c(=O)[nH]c1=O` [Example 96, (R)-5-amino-N-(5-(2-fluorobenzyloxy)-1,2,3,4-tetrahydronaphthalen-1-yl)-2,6-dioxo-1,2,3,6-tetrahydropyrimidine-4-carboxamide] the figure was at most 10 µM; with `Nc1c(C(=O)N[C@H]2CCCc3c(OCc4ccccc4F)cccc32)[nH]c(=O)[nH]c1=O` [Example 97, (S)-5-amino-N-(5-(2-fluorobenzyloxy)-1,2,3,4-tetrahydronaphthalen-1-yl)-2,6-dioxo-1,2,3,6-tetrahydropyrimidine-4-carboxamide], at most 10 µM; with `Nc1c(C(=O)NC2CCCC(c3ccccc3)C2)[nH]c(=O)[nH]c1=O` (centres unmarked) [Example 101, 5-amino-2,6-dioxo-N-(3-phenylcyclohexyl)-1,2,3,6-tetrahydropyrimidine-4-carboxamide], at most 10 µM.
On to `Nc1c(C(=O)NC2CCC(c3cnn(Cc4ccccc4)c3)C2)[nH]c(=O)[nH]c1=O` (centres unmarked) [Example 102, 5-amino-N-(3-(1-benzyl-1H-pyrazol-4-yl)cyclopentyl)-2,6-dioxo-1,2,3,6-tetrahydropyrimidine-4-carboxamide], for which the IC50 is at most 10 µM.
On the same count and under the same terms, then `COc1cccc2c1CCC[C@H]2NC(=O)c1[nH]c(=O)[nH]c(=O)c1N` [Example 103, (R)-5-amino-N-(5-methoxy-1,2,3,4-tetrahydronaphthalen-1-yl)-2,6-dioxo-1,2,3,6-tetrahydropyrimidine-4-carboxamide], with at most 10 µM.
Consider `Nc1c(C(=O)NC2CCC(c3cccc(OCc4ccccc4)c3)C2)[nH]c(=O)[nH]c1=O` (centres unmarked) [Example 104, 5-amino-N-(3-(3-(benzyloxy)phenyl)cyclopentyl)-2,6-dioxo-1,2,3,6-tetrahydropyrimidine-4-carboxamide], for which the half-inhibitory concentration (IC50) was at most 10 µM.
`Nc1c(C(=O)N[C@@H]2CCCc3cc(NC(=O)c4ccccc4)ccc32)[nH]c(=O)[nH]c1=O` [Example 105, (R)-5-amino-N-(6-benzamido-1,2,3,4-tetrahydronaphthalen-1-yl)-2,6-dioxo-1,2,3,6-tetrahydropyrimidine-4-carboxamide]: the IC50 was at most 10 µM.
On the same count and under the same terms, with `Nc1c(C(=O)NC2CCC(c3ccc(OCc4ccccc4)cc3)C2)[nH]c(=O)[nH]c1=O` (centres unmarked) [Example 106, 5-amino-N-(3-(4-(benzyloxy)phenyl)cyclopentyl)-2,6-dioxo-1,2,3,6-tetrahydropyrimidine-4-carboxamide] the figure was at most 10 µM; with `COc1ccc(C2CCC(NC(=O)c3[nH]c(=O)[nH]c(=O)c3N)C2)cc1` (centres unmarked) [Example 107, 5-amino-N-(3-(4-methoxyphenyl)cyclopentyl)-2,6-dioxo-1,2,3,6-tetrahydropyrimidine-4-carboxamide], at most 10 µM.
On the same count and under the same terms, with `COc1ccc2c(c1OC)CCC(NC(=O)c1[nH]c(=O)[nH]c(=O)c1N)C2` (centres unmarked) [Example 108, 5-amino-N-(5,6-dimethoxy-1,2,3,4-tetrahydronaphthalen-2-yl)-2,6-dioxo-1,2,3,6-tetrahydropyrimidine-4-carboxamide] the figure was at most 10 µM; with `COc1cc(C)c(OC)c2c1CC(NC(=O)c1[nH]c(=O)[nH]c(=O)c1N)CC2` (centres unmarked) [Example 109, 5-amino-N-(5,8-dimethoxy-6-methyl-1,2,3,4-tetrahydronaphthalen-2-yl)-2,6-dioxo-1,2,3,6-tetrahydropyrimidine-4-carboxamide], at most 10 µM.
Same read-out and setting: then `COc1cccc2c1C[C@H](NC(=O)c1[nH]c(=O)[nH]c(=O)c1N)CC2` [Example 110, (R)-5-amino-N-(8-methoxy-1,2,3,4-tetrahydronaphthalen-2-yl)-2,6-dioxo-1,2,3,6-tetrahydropyrimidine-4-carboxamide], with at most 10 µM.
As to `Nc1c(C(=O)N[C@@H]2CCCc3c(CCc4ccccc4)cccc32)[nH]c(=O)[nH]c1=O` [Example 111, (R)-5-amino-2,6-dioxo-N-(5-phenethyl-1,2,3,4-tetrahydronaphthalen-1-yl)-1,2,3,6-tetrahydropyrimidine-4-carboxamide], the IC50 is at most 10 µM.
`Nc1c(C(=O)N[C@@H]2CCCc3c(-c4ccccc4)cccc32)[nH]c(=O)[nH]c1=O` [Example 112, (R)-5-amino-2,6-dioxo-N-(5-phenyl-1,2,3,4-tetrahydronaphthalen-1-yl)-1,2,3,6-tetrahydropyrimidine-4-carboxamide]: the IC50 is at most 10 µM.
Consider `Nc1c(C(=O)N[C@@H]2CCCc3c(OCC4CCCC4)cccc32)[nH]c(=O)[nH]c1=O` [Example 113, (R)-5-amino-N-(5-(cyclopentylmethoxy)-1,2,3,4-tetrahydronaphthalen-1-yl)-2,6-dioxo-1,2,3,6-tetrahydropyrimidine-4-carboxamide], for which the 50% inhibitory concentration (IC50) is at most 10 µM.
Still for that read-out and setting: with `Nc1c(C(=O)N[C@H]2CC[C@@H](c3ccc(OCc4ccccc4)cc3)CC2)[nH]c(=O)[nH]c1=O` [Example 114, 5-amino-N-(cis-4-(4-(benzyloxy)phenyl)cyclohexyl)-2,6-dioxo-1,2,3,6-tetrahydropyrimidine-4-carboxamide] the figure was at most 10 µM; with `Nc1c(C(=O)N[C@H]2CC[C@@H](NC(=O)c3ccccc3)CC2)[nH]c(=O)[nH]c1=O` [Example 115, 5-amino-N-(cis-4-benzamidocyclohexyl)-2,6-dioxo-1,2,3,6-tetrahydropyrimidine-4-carboxamide], at most 10 µM.
As to `Nc1c(C(=O)N[C@H]2CC[C@@H](NC(=O)Cc3ccccc3)CC2)[nH]c(=O)[nH]c1=O` [Example 116, 5-amino-2,6-dioxo-N-(cis-4-(2-phenylacetamido)cyclohexyl)-1,2,3,6-tetrahydropyrimidine-4-carboxamide], the IC50 was at most 10 µM.
Same read-out and setting: then `Nc1c(C(=O)N[C@H]2CC[C@@H](NC(=O)c3nc4ccccc4s3)CC2)[nH]c(=O)[nH]c1=O` [Example 117, N-(cis-4-(5-amino-2,6-dioxo-1,2,3,6-tetrahydropyrimidine-4-carboxamido)cyclohexyl)benzo[d] thiazole-2-carboxamide], with at most 10 µM.
Still for that read-out and setting: then `Nc1c(C(=O)N[C@H]2CC[C@@H](NC(=O)Nc3ccccc3)CC2)[nH]c(=O)[nH]c1=O` [Example 118, 5-amino-2,6-dioxo-N-(cis-4-(3-phenylureido)cyclohexyl)-1,2,3,6-tetrahydropyrimidine-4-carboxamide], with at most 10 µM; and `Nc1c(C(=O)N[C@H]2CC[C@@H](NC(=O)OCc3ccccc3)CC2)[nH]c(=O)[nH]c1=O` [Example 119, benzyl cis-4-(5-amino-2,6-dioxo-1,2,3,6-tetrahydropyrimidine-4-carboxamido)cyclohexylcarbamate], with at most 10 µM; and `COCCOc1ccc(C(=O)N[C@H]2CC[C@@H](NC(=O)c3[nH]c(=O)[nH]c(=O)c3N)CC2)cc1` [Example 120, 5-amino-N-(cis-4-(4-(2-methoxyethoxy)benzamido)cyclohexyl)-2,6-dioxo-1,2,3,6-tetrahydropyrimidine-4-carboxamide], with at most 10 µM.
Still for that read-out and setting: with `CCOc1cccc(C(=O)N[C@H]2CC[C@@H](NC(=O)c3[nH]c(=O)[nH]c(=O)c3N)CC2)c1` [Example 121, 5-amino-N-(cis-4-(3-ethoxybenzamido)cyclohexyl)-2,6-dioxo-1,2,3,6-tetrahydropyrimidine-4-carboxamide] the figure was at most 10 µM.

By IC50 is commonly meant the point on the concentration scale where inhibition reaches its midpoint.
